Laboratory results published in article PMC5023282, “A rapid fluorometric assay for the S-malonyltransacylase FabD and other sulfhydryl utilizing enzymes” (Journal of Biological Methods, 2016).

Biological target: T1, FabD (malonyl-coenzyme A transacylase; malonyl-CoA:ACP transacylase) (Escherichia coli, UniProt P0AAI9)
T1 construct: full ORF in pET28b (NcoI/EcoRI), one extra N-terminal glycine, no His tag; expressed in E. coli BL21* DE3
Test: CPM fluorescence detection of CoA-SH after TCA precipitation of holo-ACP, initial rates
Type: biochemical
Details: holo-ACP 125 µM; 25 mM MOPS, 100 mM NaCl, 1 mg/ml BSA, pH 7.1, 30°C
Text: CPM fluorescence detection of CoA-SH after TCA precipitation of holo-ACP, initial rates on FabD (malonyl-coenzyme A transacylase; malonyl-CoA:ACP transacylase)

T1 sequence (P0AAI9 2-309): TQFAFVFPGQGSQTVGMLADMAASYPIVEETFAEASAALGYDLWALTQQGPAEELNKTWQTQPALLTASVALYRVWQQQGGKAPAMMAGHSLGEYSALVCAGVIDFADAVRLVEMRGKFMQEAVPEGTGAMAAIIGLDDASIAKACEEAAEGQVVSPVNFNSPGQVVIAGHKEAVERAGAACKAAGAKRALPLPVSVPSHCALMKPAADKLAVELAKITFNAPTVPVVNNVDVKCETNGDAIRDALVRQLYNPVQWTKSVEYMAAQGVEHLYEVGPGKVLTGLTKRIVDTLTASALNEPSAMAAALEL

CC(C)(COP(=O)(O)OP(=O)(O)OC[C@H]1O[C@@H](n2cnc3c(N)ncnc32)[C@H](O)[C@@H]1OP(=O)(O)O)[C@@H](O)C(=O)NCCC(=O)NCCSC(=O)CC(=O)O [malonyl-CoA]
Km: 60 ± 20 µM
